Assay results published in article PMC11538350, “Synthetic studies on the tetrasubstituted D-ring of cystobactamids lead to potent terephthalic acid antibiotics” (Communications Chemistry, 2024).
Values after ≈ are worked out from the molar mass of the structure shown.

Columns and labels:
E. ae. CIP 106754 = experiment: MIC assay; format: cell-based, Enterobacter aerogenes; settings: Klebsiella aerogenes, CIP106754, read-out: MIC E. ae. CIP 106754
Protocol: (§1) All cystobactamids were evaluated in MIC-assays on a panel of representative ESKAPE strains with focus on A. baumannii (Tables 1 and 2). Compared to our previous work[10],[17],[18], we specifically included more challenging test strains with known resistances against gyrase inhibitors.
(§2) 2.1 Materials and Methods
(§3) Strains were cultivated according to standard procedures. Bacterial cryo-cultures were
(§4) resuspended into fresh MHBII (cation adjusted) medium. The resuspension
(§5) assay plate (Corning, #3788).
(§6) in parallel as a positive control. […]

ESKAPE strains = experiment: MIC-assays on a panel of representative ESKAPE strains, summary in words; format: cell-based; settings: summary of the MIC tables
Protocol: as §1, §2, §3, §4, §5, §6

E. faec. DSM-17050 (VRE) = experiment: MIC assay; format: cell-based, Enterococcus faecium; settings: Enterococcus; read-out: MIC E. faec. DSM-17050 (VRE)
Protocol: as §1, §2, §3, §4, §5, §6

E. coli ATCC-25922 = experiment: MIC assay; format: cell-based; settings: Escherichia coli, ATCC25922; reference strain; read-out: MIC E. coli ATCC-25922
Protocol: as §1, §2, §3, §4, §5, §6

A. baum. DSM-30008 = experiment: MIC assay; format: cell-based; settings: Acinetobacter baumannii, DSM30008; reference strain; read-out: MIC A. baum. DSM-30008
Protocol: as §1, §2, §3, §4, §5, §6

S. aur. ATCC-29213 = experiment: MIC assay; format: cell-based; settings: Staphylococcus aureus, ATCC29213; reference strain; read-out: MIC S. aur. ATCC-29213
Protocol: as §1, §2, §3, §4, §5, §6

E. coli LM705 = experiment: MIC assay; format: cell-based; settings: Escherichia coli, LM705, read-out: MIC E. coli LM705
Protocol: as §1, §2, §3, §4, §5, §6

K. pneum. R-1525 = experiment: MIC assay; format: cell-based; settings: Klebsiella pneumoniae; read-out: MIC K. pneum. R-1525
Protocol: as §1, §2, §3, §4, §5, §6

E. cloacae ATCC BAA-2468 = experiment: MIC assay; format: cell-based; settings: Enterobacter cloacae, ATCCBAA2468; read-out: MIC E. cloacae ATCC BAA-2468
Protocol: as §1, §2, §3, §4, §5, §6

K. pneum. KP10581 = experiment: MIC assay; format: cell-based; settings: Klebsiella pneumoniae; read-out: MIC K. pneum. KP10581
Protocol: as §1, §2, §3, §4, §5, §6

P. ae. PA14 = experiment: MIC assay; format: cell-based; settings: Pseudomonas aeruginosa, PA14; reference strain; read-out: MIC P. ae. PA14
Protocol: as §1, §2, §3, §4, §5, §6

[1] = test system: S. pneum. DSM-11865 (PRSP); experiment: MIC assay; format: cell-based; settings: Streptococcus pneumoniae; read-out: MIC S. pneum. DSM-11865 (PRSP)
Protocol: as §1, §2, §3, §4, §5, §6

A. baum. CIP-105742 = experiment: MIC assay; format: cell-based; settings: Acinetobacter baumannii, CIP105742; read-out: MIC A. baum. CIP-105742
Protocol: as §1, §2, §3, §4, §5, §6

K. pneum. CIP-104298 = experiment: MIC assay; format: cell-based; settings: Klebsiella pneumoniae, CIP104298; reference strain; read-out: MIC K. pneum. CIP-104298
Protocol: as §1, §2, §3, §4, §5, §6

P. ae. PA14ΔmexAB = experiment: MIC assay; format: cell-based; settings: Pseudomonas aeruginosa, read-out: MIC P. ae. PA14ΔmexAB
Protocol: as §1, §2, §3, §4, §5, §6

A. baum. CIP-107292 = experiment: MIC assay; format: cell-based; settings: Acinetobacter baumannii, CIP107292; read-out: MIC A. baum. CIP-107292
Protocol: as §1, §2, §3, §4, §5, §6

A. baum. ATCC BAA-1710 = experiment: MIC assay; format: cell-based; settings: Acinetobacter baumannii, ATCCBAA1710; read-out: MIC A. baum. ATCC BAA-1710
Protocol: as §1, §2, §3, §4, §5, §6

A. baum. R835 = experiment: MIC assay; format: cell-based; settings: Acinetobacter baumannii; read-out: MIC A. baum. R835
Protocol: as §1, §2, §3, §4, §5, §6

| SMILES | MIC (E. ae. CIP 106754) [µg/mL] | antibacterial activity on the pathogen panel, in words (ESKAPE strains) | MIC (E. faec. DSM-17050 (VRE)) [µg/mL] | MIC (E. coli ATCC-25922) [µg/mL] | MIC (A. baum. DSM-30008) [µg/mL] | MIC (S. aur. ATCC-29213) [µg/mL] | MIC (E. coli LM705) [µg/mL] | MIC (K. pneum. R-1525) [µg/mL] | MIC (E. cloacae ATCC BAA-2468) [µg/mL] | MIC (K. pneum. KP10581) [µg/mL] | MIC (P. ae. PA14) [µg/mL] | MIC [1] [µg/mL] | MIC (A. baum. CIP-105742) [µg/mL] | MIC (K. pneum. CIP-104298) [µg/mL] | MIC (P. ae. PA14ΔmexAB) [µg/mL] | MIC (A. baum. CIP-107292) [µg/mL] | MIC (A. baum. ATCC BAA-1710) [µg/mL] | MIC (A. baum. R835) [µg/mL] |
| --- | --- | --- | --- | --- | --- | --- | --- | --- | --- | --- | --- | --- | --- | --- | --- | --- | --- | --- |
| C#CCC(NC(=O)c1ccc(NC(=O)c2ccc(C#N)cc2)cc1)C(=O)Nc1ccc(C(=O)Nc2ccc(C(=O)Nc3ccc(C(=O)O)cc3)c(Cl)c2OC(C)C)cc1 (stereo not drawn) [Cmpd. 5] | > 64 | abolished the activity in all tested strains | > 64 | > 64 | > 8 | > 64 | > 64 | > 64 | > 64 | > 64 | > 64 | > 64 | > 8 | > 64 | > 64 | > 8 | > 8 | > 8 |
| C#CC[C@H](NC(=O)c1ccc(NC(=O)c2ccc(C#N)cc2)cc1)C(=O)Nc1ccc(C(=O)Nc2ccc(C(=O)Nc3ccc(C(=O)O)cc3)c(Br)c2OC(C)C)cc1 [Cmpd. 6] | > 64 | abolished the activity in all tested strains | > 64 | > 64 | > 8 | > 64 | > 64 | > 64 | > 64 | > 64 | > 64 | > 64 | > 8 | > 64 | > 64 | > 8 | > 8 | > 8 |
| C#CC[C@H](NC(=O)c1ccc(NC(=O)c2ccc(C#N)cc2)cc1)C(=O)Nc1ccc(C(=O)Nc2ccc(-c3nc4ccc(C(=O)O)cc4[nH]3)c(O)c2OC(C)C)cc1 [Cmpd. 48] | > 64 |  | 2 (≈ 2.53 µM) | 64 (≈ 81 µM) | 8 (≈ 10.1 µM) | 4 (≈ 5.06 µM) | > 64 | > 64 | > 64 | 16 (≈ 20.3 µM) | > 64 | > 64 | > 8 | > 64 | > 64 | > 8 | > 8 | > 8 |
| C#CC[C@H](NC(=O)c1ccc(NC(=O)c2ccc(C#N)cc2)cc1)C(=O)Nc1ccc(C(=O)Nc2ccc3c(=O)n(-c4ccc(C(=O)O)cc4)c(C)nc3c2OC(C)C)cc1 [Cmpd. 45a] | > 64 |  | 2 to 4 (≈ 2.45 to 4.9 µM) | 2 to 4 (≈ 2.45 to 4.9 µM) | 8 (≈ 9.81 µM) | 4 (≈ 4.9 µM) | > 64 | > 64 | > 64 | 4 (≈ 4.9 µM) | > 64 | > 64 | 4 (≈ 4.9 µM) | > 64 | 16 to 32 (≈ 19.6 to 39.2 µM) | > 8 | 0.5 to 1 (≈ 0.613 to 1.23 µM) | > 8 |
| C#CC[C@H](NC(=O)c1ccc(NC(=O)c2ccc(C#N)cc2)cc1)C(=O)Nc1ccc(C(=O)Nc2ccc3c(=O)n(-c4ccc(C(=O)O)cc4)cnc3c2OC(C)C)cc1 [Cmpd. 45b] | > 64 |  | 1 (≈ 1.25 µM) | 1 (≈ 1.25 µM) | 1 to 2 (≈ 1.25 to 2.49 µM) | 8 (≈ 9.98 µM) | > 64 | > 64 | > 64 | 16 (≈ 20 µM) | > 64 | > 64 | 2 (≈ 2.49 µM) | > 64 | > 64 | > 8 | > 8 | > 8 |
| CO[C@@H](C(N)=O)[C@H](NC(=O)c1ccc(NC(=O)c2ccc(C#N)cc2)cc1)C(=O)Nc1ccc(C(=O)Nc2ccc(C(=O)N(C)c3ccc(C(=O)O)cc3)c(O)c2OC(C)C)cc1 [Cmpd. 46] | > 64 |  | > 64 | < 0.03 | > 8 | > 64 | > 64 | > 64 | > 64 | > 64 | > 64 | > 64 | > 8 | > 64 | > 64 | > 8 | > 8 | > 8 |
| C#CC[C@H](NC(=O)c1ccc(NC(=O)c2ccc(C#N)cc2)cc1)C(=O)Nc1ccc(C(=O)Nc2cc(O)c(C(=O)Nc3ccc(C(=O)O)cc3)cc2OC(C)C)cc1 [Cmpd. 3] | > 64 |  | > 64 | 1 (≈ 1.26 µM) | 1 (≈ 1.26 µM) | > 64 | > 64 | > 64 | > 64 | > 64 | > 64 | > 64 | 2 (≈ 2.52 µM) | > 64 | > 64 | > 64 | > 64 | > 64 |
| C#CC[C@H](NC(=O)c1ccc(NC(=O)c2ccc(C#N)cc2)cc1)C(=O)Nc1ccc(CNc2ccc(C(=O)Nc3ccc(C(=O)O)cc3)c(O)c2OC(C)C)cc1 [Cmpd. 40] | > 64 |  | 0.25 (≈ 0.321 µM) | 0.5 to 1 (≈ 0.642 to 1.28 µM) | 0.5 (≈ 0.642 µM) | 0.5 to 1 (≈ 0.642 to 1.28 µM) | > 64 | > 64 | > 64 | 1 (≈ 1.28 µM) | > 64 | > 64 | 0.25 (≈ 0.321 µM) | > 64 | 2 (≈ 2.57 µM) | > 8 | 0.5 (≈ 0.642 µM) | > 8 |
